According to the supplement of paper PMC10307832:

Legend:
Assay in all cases: relative viability (nuclei count vs DMSO), 5 days (fraction); higher = more cells survive
R406 = compound: COc1cc(Nc2ncc(F)c(Nc3ccc4c(n3)NC(=O)C(C)(C)O4)n2)cc(OC)c1OC [R406]
Summary of the method: (§1)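 For viability, nuclei in each treated well were divided by nuclei in vehicle wells and the median across plates was taken. Lung cancer cell lines in 1536-well plates were pinned with five library-drug doses (not always all listed) spaced by √10, cultured 5 days without medium change, and imaged at 4× after Hoechst staining, with plates passing only at control CV below 25% and at least one doubling.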

Daporinad = compound: O=C(/C=C/c1cccnc1)NCCCCC1CCN(C(=O)c2ccccc2)CC1 [Daporinad]
Summary of the method: as §1

R406 + Pictilisib = compound: COc1cc(Nc2ncc(F)c(Nc3ccc4c(n3)NC(=O)C(C)(C)O4)n2)cc(OC)c1OC [R406] + CS(=O)(=O)N1CCN(Cc2cc3nc(-c4cccc5[nH]ncc45)nc(N4CCOCC4)c3s2)CC1 [Pictilisib] (partner 1 µM)
Summary of the method: (§2)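 The day after seeding in 1536-well plates, lung cancer cell lines were treated by pin tool with a single drug, or with a fixed anchor-drug dose together with five library-drug doses (not always all listed) in √10 steps. After 5 days, a combined fix-and-stain solution (final 0.05% Triton X-100, 1% formaldehyde, 1 ug/ml Hoechst) was added. Nuclei counted on 4× images gave relative viability as treated counts over vehicle counts, reported as the median of duplicate plates.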

R406 + Alpelisib = compound: COc1cc(Nc2ncc(F)c(Nc3ccc4c(n3)NC(=O)C(C)(C)O4)n2)cc(OC)c1OC [R406] + Cc1nc(NC(=O)N2CCC[C@H]2C(N)=O)sc1-c1ccnc(C(C)(C)C(F)(F)F)c1 [Alpelisib] (partner 2 µM)
Summary of the method: as §2

Cell Line UMC-11 has a relative viability (R406; 0.08 µM) of 0.964, a relative viability (R406; 0.253 µM) of 1.15 and a relative viability (R406; 0.8 µM) of 1.16. The relative viability (R406; 2.53 µM) was 0.861, the relative viability (R406; 8 µM) was 0.481 and the relative viability (Daporinad; 0.0005 µM) was 0.963. For the same cell line, the relative viability (Daporinad; 0.001581 µM) was 1.07, the relative viability (Daporinad; 0.005 µM) was 1.03 and the relative viability (Daporinad; 0.01581 µM) was 1.05. For the same cell line, the relative viability (R406 + Pictilisib; first compound 0.08 µM) was 0.864, the relative viability (R406 + Pictilisib; first compound 0.253 µM) was 1.07 and the relative viability (R406 + Pictilisib; first compound 0.8 µM) was 0.863. For the same cell line, the relative viability (R406 + Pictilisib; first compound 2.53 µM) was 0.568, the relative viability (R406 + Pictilisib; first compound 8 µM) was 0.369 and the relative viability (R406 + Alpelisib; first compound 0.08 µM) was 0.969. For the same cell line, the relative viability (R406 + Alpelisib; first compound 0.253 µM) was 1.06, the relative viability (R406 + Alpelisib; first compound 0.8 µM) was 1.15 and the relative viability (R406 + Alpelisib; first compound 2.53 µM) was 0.89. For the same cell line, the relative viability (R406 + Alpelisib; first compound 8 µM) was 0.386.
